Laboratory results taken from ChEMBL document CHEMBL1201862, “PubChem BioAssay data set” (2004).
The source made the active and inactive calls.

Tests used:
[1] = target: T1, Corticotropin-releasing factor receptor 2/Corticotropin-releasing factor-binding protein (Homo sapiens, UniProt P24387+Q13324); assay: Dose Response confirmation of uHTS hits for small molecule antagonists of the CRF-binding protein and CRF-R2 receptor complex.; assay type: functional; conditions: read-out: IC50_Mean
T1 sequence (Q13324 whole entry): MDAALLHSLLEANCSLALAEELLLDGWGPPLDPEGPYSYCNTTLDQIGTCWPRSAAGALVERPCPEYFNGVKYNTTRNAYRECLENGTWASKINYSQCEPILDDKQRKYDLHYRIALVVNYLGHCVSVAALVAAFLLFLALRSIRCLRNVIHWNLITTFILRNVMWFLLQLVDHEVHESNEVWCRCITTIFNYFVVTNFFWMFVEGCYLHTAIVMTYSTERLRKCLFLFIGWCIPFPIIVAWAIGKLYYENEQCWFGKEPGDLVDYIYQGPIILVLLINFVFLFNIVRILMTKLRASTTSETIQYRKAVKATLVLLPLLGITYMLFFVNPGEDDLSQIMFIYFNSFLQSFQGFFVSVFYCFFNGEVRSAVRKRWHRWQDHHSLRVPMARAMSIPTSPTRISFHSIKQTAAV
T1 sequence (P24387 whole entry): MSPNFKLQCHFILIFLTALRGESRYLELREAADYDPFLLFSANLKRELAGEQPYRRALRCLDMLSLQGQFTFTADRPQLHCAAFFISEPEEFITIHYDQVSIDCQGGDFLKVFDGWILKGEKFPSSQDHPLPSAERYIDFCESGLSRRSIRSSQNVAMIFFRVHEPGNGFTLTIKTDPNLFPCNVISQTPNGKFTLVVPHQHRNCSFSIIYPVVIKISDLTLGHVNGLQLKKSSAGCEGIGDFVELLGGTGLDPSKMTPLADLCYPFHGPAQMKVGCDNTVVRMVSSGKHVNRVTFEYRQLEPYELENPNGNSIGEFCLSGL

[2] = target: Mitochondrial peptide methionine sulfoxide reductase (Bos taurus, UniProt P54149); assay: Absorbance-based biochemical high throughput dose response assay for activators of Methionine sulfoxide reductase A (MsrA).; assay type: functional
Mitochondrial peptide methionine sulfoxide reductase, sequence (P54149 whole entry): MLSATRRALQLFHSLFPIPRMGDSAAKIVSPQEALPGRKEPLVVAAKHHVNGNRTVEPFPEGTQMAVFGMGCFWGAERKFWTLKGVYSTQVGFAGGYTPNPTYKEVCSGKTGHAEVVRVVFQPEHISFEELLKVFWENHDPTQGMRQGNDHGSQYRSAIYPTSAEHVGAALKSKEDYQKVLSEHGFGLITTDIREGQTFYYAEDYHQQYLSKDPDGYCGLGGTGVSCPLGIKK

Prothrombin = Prothrombin (Homo sapiens, UniProt P00734); assay: Thrombin 1536 HTS Dose Response Confirmation. [Related pubchem assays: 1046 (Thrombin 1536 HTS; hits were confirmed in this assay)]; assay type: functional
Caspase-7 = Caspase-7 (Homo sapiens, UniProt P55210); assay: caspase-7 enzyme inhibition, selectivity check – biochemical, DEVD-R110 fluorescence, cherry-pick, selectivity assay for caspase-6 inhibitor project, dose response (AID 743295); assay type: functional
Caspase-7, sequence (P55210 24-198 limits assumed): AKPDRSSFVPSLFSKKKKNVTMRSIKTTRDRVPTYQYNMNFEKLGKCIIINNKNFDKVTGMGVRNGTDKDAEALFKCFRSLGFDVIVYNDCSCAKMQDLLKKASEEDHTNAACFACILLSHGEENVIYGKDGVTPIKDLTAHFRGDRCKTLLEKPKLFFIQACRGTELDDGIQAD
Caspase-7, sequence (P55210 207-303 limits assumed): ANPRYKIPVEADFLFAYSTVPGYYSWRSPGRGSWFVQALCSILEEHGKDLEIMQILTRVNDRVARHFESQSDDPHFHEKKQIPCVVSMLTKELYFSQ

[3] = target: Cyclin-dependent kinase 2 (Homo sapiens, UniProt P24941); assay type: functional;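 note: CDK2 measured as one member of a broad kinome profiling panel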
[4] = target: MAP kinase-activated protein kinase 2 (Homo sapiens, UniProt P49137); assay type: functional;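 note: measured as one member of a kinome-wide kinase panel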
MAP kinase-activated protein kinase 2, sequence (P49137 whole entry): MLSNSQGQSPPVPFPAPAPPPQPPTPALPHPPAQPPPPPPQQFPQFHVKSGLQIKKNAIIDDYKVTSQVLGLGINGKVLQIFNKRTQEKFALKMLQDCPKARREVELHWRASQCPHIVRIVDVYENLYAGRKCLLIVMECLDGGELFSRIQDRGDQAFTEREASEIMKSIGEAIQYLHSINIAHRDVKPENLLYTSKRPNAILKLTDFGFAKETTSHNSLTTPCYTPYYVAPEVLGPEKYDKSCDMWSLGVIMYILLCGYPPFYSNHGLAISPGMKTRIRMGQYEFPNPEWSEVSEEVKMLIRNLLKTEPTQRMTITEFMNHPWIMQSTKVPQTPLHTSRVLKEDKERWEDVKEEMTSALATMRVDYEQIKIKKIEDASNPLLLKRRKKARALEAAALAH

[5] = target: Receptor-type tyrosine-protein kinase FLT3 (Homo sapiens, UniProt P36888); assay type: functional;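 note: FLT3 was tested as one member of a kinome-wide kinase panel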
Receptor-type tyrosine-protein kinase FLT3, sequence (P36888 whole entry): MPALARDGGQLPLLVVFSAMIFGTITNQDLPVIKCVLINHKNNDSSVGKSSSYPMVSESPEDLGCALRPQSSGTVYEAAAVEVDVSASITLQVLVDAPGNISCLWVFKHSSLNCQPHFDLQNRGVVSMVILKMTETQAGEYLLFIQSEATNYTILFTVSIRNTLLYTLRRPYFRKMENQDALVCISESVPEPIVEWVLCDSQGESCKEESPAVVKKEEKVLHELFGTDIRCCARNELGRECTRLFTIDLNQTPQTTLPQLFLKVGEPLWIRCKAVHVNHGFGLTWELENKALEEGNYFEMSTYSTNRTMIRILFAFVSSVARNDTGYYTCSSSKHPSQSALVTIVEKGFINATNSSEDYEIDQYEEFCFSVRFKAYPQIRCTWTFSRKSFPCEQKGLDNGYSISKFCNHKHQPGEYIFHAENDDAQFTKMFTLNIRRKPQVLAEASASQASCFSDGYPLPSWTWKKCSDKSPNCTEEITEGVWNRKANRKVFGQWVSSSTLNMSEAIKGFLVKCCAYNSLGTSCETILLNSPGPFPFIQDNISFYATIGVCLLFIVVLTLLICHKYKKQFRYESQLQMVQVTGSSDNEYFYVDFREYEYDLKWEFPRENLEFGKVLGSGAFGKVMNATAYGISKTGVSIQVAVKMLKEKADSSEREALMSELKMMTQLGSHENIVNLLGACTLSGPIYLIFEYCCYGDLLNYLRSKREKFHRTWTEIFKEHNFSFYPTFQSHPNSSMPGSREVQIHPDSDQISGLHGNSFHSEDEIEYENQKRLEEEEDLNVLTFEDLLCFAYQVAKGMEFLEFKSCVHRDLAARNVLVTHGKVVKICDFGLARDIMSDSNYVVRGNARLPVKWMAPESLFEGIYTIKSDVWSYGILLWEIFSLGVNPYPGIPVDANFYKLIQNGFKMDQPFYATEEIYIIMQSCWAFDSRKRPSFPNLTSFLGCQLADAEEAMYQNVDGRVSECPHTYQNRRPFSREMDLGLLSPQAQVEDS

[6] = target: Dual specificity tyrosine-phosphorylation-regulated kinase 1A (Homo sapiens, UniProt Q13627); assay type: functional;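 note: measured against DYRK1A as one member of a broad kinome profiling panel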
[7] = target: Serine/threonine-protein kinase D2 (Homo sapiens, UniProt Q9BZL6); assay type: functional;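 note: measured against PRKD2 as one member of a kinome-wide kinase profiling panel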
Serine/threonine-protein kinase D2, sequence (Q9BZL6 whole entry): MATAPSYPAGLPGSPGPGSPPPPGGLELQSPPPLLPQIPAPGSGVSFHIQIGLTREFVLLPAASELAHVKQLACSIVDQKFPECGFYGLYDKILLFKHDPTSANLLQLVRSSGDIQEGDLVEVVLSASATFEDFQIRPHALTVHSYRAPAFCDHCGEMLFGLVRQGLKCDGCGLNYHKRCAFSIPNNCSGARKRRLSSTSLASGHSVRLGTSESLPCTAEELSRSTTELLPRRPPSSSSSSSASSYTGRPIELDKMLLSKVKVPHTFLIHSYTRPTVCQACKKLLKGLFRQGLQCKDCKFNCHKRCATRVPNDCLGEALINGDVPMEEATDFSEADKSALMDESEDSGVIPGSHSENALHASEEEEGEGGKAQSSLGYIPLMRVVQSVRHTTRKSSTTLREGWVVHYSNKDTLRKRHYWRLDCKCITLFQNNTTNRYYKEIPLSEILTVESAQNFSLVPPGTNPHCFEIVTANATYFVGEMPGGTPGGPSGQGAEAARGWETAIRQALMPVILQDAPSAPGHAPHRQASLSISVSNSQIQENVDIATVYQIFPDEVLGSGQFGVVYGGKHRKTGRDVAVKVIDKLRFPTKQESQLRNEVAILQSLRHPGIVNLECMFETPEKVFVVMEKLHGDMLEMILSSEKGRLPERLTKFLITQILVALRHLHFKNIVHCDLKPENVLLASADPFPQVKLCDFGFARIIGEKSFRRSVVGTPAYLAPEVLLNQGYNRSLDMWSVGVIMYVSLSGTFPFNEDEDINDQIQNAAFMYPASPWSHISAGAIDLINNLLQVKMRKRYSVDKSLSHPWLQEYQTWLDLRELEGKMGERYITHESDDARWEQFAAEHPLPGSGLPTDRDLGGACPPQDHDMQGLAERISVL

[8] = target: Protein kinase C delta type (Homo sapiens, UniProt Q05655); assay type: functional
Protein kinase C delta type, sequence (Q05655 whole entry): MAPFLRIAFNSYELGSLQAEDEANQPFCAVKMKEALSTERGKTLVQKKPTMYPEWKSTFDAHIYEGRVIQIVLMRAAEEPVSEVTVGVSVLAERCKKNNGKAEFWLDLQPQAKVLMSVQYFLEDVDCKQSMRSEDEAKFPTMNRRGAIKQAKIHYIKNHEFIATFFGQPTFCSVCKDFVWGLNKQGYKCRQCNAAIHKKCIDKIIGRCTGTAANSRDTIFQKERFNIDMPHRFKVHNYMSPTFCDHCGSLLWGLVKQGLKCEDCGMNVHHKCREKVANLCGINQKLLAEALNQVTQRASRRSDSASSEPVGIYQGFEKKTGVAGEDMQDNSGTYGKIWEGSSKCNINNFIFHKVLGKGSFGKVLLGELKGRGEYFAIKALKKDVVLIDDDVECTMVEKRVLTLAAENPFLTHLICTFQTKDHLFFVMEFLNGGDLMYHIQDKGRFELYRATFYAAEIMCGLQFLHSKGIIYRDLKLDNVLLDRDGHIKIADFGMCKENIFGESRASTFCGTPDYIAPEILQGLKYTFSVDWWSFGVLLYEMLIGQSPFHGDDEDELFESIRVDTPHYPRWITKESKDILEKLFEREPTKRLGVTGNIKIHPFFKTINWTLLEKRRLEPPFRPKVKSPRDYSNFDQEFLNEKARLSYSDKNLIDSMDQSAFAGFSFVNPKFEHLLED

[9] = target: Dual specificity tyrosine-phosphorylation-regulated kinase 4 (Homo sapiens, UniProt Q9NR20); assay type: functional
[10] = target: Polyadenylate-binding protein 1 (Homo sapiens, UniProt P11940); assay: MLLE domain peptide-binding blockers, IC50 – biochemical, fluorescence polarization, FITC-PAM2 peptide, dose response (AID 602259); assay type: functional; conditions: read-out: IC50_Mean
[11] = target: Serine/threonine-protein kinase MRCK alpha (Homo sapiens, UniProt Q5VT25); assay type: functional
[12] = target: Tyrosine-protein kinase receptor TYRO3 (Homo sapiens, UniProt Q06418); assay type: functional;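 note: TYRO3 value obtained as one member of a kinome-wide profiling panel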
[13] = target: Mitogen-activated protein kinase 1 (Homo sapiens, UniProt P28482); assay type: functional
Mitogen-activated protein kinase 1, sequence (P28482 whole entry): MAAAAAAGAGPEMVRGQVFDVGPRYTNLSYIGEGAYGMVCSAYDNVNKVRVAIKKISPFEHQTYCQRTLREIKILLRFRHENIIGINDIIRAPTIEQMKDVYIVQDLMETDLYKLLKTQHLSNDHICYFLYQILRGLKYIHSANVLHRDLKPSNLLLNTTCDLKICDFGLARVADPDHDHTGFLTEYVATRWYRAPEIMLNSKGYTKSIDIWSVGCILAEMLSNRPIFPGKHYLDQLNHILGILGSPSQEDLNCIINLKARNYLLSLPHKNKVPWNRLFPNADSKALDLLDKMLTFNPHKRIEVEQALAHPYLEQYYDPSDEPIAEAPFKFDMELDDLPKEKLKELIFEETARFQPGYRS

[14] = target: Serine/threonine-protein kinase N2 (Homo sapiens, UniProt Q16513); assay type: functional
Serine/threonine-protein kinase N2, sequence (Q16513 whole entry): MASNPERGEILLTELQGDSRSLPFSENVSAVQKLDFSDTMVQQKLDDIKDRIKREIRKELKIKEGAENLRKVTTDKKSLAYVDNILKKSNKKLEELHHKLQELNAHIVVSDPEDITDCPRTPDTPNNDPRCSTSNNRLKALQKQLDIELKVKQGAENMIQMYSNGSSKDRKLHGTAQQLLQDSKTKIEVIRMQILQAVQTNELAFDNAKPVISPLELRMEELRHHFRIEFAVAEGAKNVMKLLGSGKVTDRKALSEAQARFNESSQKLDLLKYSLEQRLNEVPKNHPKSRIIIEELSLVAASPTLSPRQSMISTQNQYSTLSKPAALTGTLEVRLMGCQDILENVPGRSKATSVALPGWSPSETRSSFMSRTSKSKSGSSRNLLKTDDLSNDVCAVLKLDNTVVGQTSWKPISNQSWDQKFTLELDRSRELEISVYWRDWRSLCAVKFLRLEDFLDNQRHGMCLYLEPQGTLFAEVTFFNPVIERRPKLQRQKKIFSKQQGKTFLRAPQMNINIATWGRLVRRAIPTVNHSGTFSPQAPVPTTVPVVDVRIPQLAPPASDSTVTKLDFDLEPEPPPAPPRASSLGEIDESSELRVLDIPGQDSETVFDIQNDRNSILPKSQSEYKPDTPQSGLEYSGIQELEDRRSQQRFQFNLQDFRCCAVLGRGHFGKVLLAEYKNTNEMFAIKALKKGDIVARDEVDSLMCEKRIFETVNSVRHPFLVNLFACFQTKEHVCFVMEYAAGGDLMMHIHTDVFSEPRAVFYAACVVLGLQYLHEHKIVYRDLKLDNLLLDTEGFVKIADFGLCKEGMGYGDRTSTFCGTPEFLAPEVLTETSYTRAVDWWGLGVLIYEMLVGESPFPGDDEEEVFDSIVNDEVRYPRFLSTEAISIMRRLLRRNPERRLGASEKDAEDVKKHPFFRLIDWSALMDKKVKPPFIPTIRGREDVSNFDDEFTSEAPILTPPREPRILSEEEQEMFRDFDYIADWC

Row | IC50 [1] | EC50 [2] | IC50 (Prothrombin) | AC50 (Caspase-7) | SMILES | Ki [3] | Ki [4] | Ki [5] | Ki [6] | Ki [7] | Ki [8] | Ki [9] | IC50 [10] | Ki [11] | Ki [12] | Ki [13] | Ki [14]
1 | > 47.1 µM (inactive) | 70.4 µM (inactive) | > 50 µM (not active) | 14.6 µM (active) | O=C(COC(=O)c1ccc([N+](=O)[O-])s1)Nc1cccc(S(=O)(=O)/N=C2/CCCCCN2)c1 | – | – | – | – | – | – | – | – | – | – | – | –
2 | – | – | – | – | Oc1c2ccccc2c2c3c(cccc13)N=N2 [SP-600125] | 0.0794 µM (active) | > 7.94 µM (inactive) | 0.0501 µM (active) | 0.126 µM (active) | 0.158 µM (active) | > 7.94 µM (inactive) | > 7.94 µM (inactive) | 30.9 µM (inactive) | > 10 µM (inactive) | 1 µM (active) | 5.01 µM (active) | > 7.94 µM (inactive)
